Assay results from article PMC6802093, “Structural characterization of HypX responsible for CO biosynthesis in the maturation of NiFe-hydrogenase” (Communications Biology, 2019).
Values belong to the molecule of their own block, whether it stands above or below them.

What was measured:
[1] = target: T1, HypX (Aquifex aeolicus, UniProt O67224); assay: X-ray crystallography; native MS; format: binding; conditions: co-purified from E. coli, none added; non-covalent; folded conformation, C-terminal part of cavity; also Form II crystal 6J1E
T1 construct: gene hoxX; residues up to 562 described; acid-denatured mass 67,531 Da; monomer; N-terminal domain 1-270, C-terminal domain 289-542

[2] = target: T2, HypX (Aquifex aeolicus, UniProt O67224, Q15A/R131A/S194A/Q195A/N306A/R542A); assay: native MS; format: binding; conditions: non-denaturing, 500 mM ammonium acetate pH 6.8; co-purified from E. coli; CoA absent in crystal structure 6J1H
T2 construct: gene hoxX; residues up to 562 described; acid-denatured mass 67,531 Da; monomer; N-terminal domain 1-270, C-terminal domain 289-542

[3] = target: T3, HypX (Aquifex aeolicus, UniProt O67224, R9A/Q15A/R131A/R542A); assay: X-ray crystallography; format: binding; conditions: co-purified from E. coli; folded conformation
T3 construct: gene hoxX; residues up to 562 described; acid-denatured mass 67,531 Da; monomer; N-terminal domain 1-270, C-terminal domain 289-542

[4] = target: T4, HypX (Aquifex aeolicus, UniProt O67224, A392F/I419F); assay: X-ray crystallography; format: binding; conditions: co-purified from E. coli; extended conformation, without THF (THF-bound structure 6J1J also holds CoA)
T4 construct: gene hoxX; residues up to 562 described; acid-denatured mass 67,531 Da; monomer; N-terminal domain 1-270, C-terminal domain 289-542

[5] = target: T1, HypX; assay: X-ray crystallography, crystal soaking; format: binding; conditions: Form I crystals soaked with THF; N-terminal domain, chain A only
[6] = target: T4, HypX; assay: X-ray crystallography, crystal soaking; format: binding; conditions: CoA also bound, extended conformation; N-terminal region of cavity
[7] = target: A. aeolicus HypC (Aquifex aeolicus); assay: SEC; Superdex75 10/300GL, 50 mM Tris-HCl (pH 8.0), 200 mM NaCl, 1 mM DTT; HypC alone, HypD alone, and HypC and HypD mixed in equal molar amount; apparent masses
[8] = target: HypC/HypD complex (A. aeolicus) (Aquifex aeolicus) (UniProt O67225); assay: SEC; Superdex200 10/300GL, 50 mM Tris-HCl (pH 8.0), 200 mM NaCl, 1 mM DTT; HypC, HypD and HypX mixed in equal molar amount; apparent mass

T1 sequence (O67224 entry or part of it): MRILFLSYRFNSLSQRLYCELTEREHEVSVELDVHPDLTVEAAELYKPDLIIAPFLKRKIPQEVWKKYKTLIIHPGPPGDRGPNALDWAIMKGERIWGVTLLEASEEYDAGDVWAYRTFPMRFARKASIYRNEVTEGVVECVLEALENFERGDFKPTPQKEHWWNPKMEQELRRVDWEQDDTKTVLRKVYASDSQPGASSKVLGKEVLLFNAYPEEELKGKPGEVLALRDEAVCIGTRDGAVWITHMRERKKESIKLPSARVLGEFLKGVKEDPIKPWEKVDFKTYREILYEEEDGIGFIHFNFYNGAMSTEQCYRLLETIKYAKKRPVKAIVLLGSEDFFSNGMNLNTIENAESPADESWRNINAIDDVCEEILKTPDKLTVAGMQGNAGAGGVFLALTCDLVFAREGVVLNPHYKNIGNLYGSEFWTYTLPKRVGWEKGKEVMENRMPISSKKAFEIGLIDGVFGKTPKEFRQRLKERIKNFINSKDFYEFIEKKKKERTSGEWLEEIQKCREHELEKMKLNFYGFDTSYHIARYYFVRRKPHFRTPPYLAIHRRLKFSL
T4 sequence (O67224 entry or part of it A392F/I419F): as the sequence (O67224 entry or part of it) above, with A392F, I419F counted along it
T3 sequence (O67224 entry or part of it R9A/Q15A/R131A/R542A): as the sequence (O67224 entry or part of it) above, with R9A, Q15A, R131A, R542A counted along it
T2 sequence (O67224 entry or part of it Q15A/R131A/S194A/Q195A/N306A/R542A): as the sequence (O67224 entry or part of it) above, with Q15A, R131A, S194A, Q195A, N306A, R542A counted along it

Molecule: CC(C)(COP(=O)(O)OP(=O)(O)OC[C@H]1O[C@@H](n2cnc3c(N)ncnc32)[C@H](O)[C@@H]1OP(=O)(O)O)[C@@H](O)C(=O)NCCC(=O)NCCS [CoA]
- X-ray crystallography; native MS [1]: HypX binds CoA constitutively with a high binding affinity
- native MS [2]: showed two MS peaks due to apo (CoA-free) and holo (CoA-bound) form
- X-ray crystallography [3]: this variant binds CoA with the folded conformation as is the case of wild-type
- X-ray crystallography [4]: CoA is able to adopt the extended conformation in the A392F-I419F variant

Molecule: Nc1nc2c(c(=O)[nH]1)N[C@@H](CNc1ccc(C(=O)N[C@@H](CCC(=O)O)C(=O)O)cc1)CN2 [THF]
- X-ray crystallography, crystal soaking [5]: We obtained HypX-THF complex by soaking Form I HypX crystals with THF
- X-ray crystallography, crystal soaking [6]: THF is bound at the N-terminal region of the cavity at the same position

- stoichiometry N [7]: 2
Molecule: A. aeolicus HypC (natural protein)

- stoichiometry N [8]: 1
Molecule: HypX from Aquifex aeolicus (enzyme)
